Key:
Test in all cases: Bliss excess, mean over the matrix (fraction); higher = more synergy
[1] = test system: PANC-03-27 (Pancreatic Carcinoma)
In short: (§1)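 Bliss excess equals the observed combination effect minus the expected value EA + EB − EA·EB, where EA and EB are the effects of each agent alone. Combination Emax is the second-highest inhibition within the matrix. Inhibition was scaled from CellTiter-Glo 2.0 luminescence, with 0 set by vehicle wells and 1 by blank wells, after 72 hours of two-drug dosing of cells plated in 1536-well plates.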

[2] = test system: COLO-680N (Esophageal Squamous Cell Carcinoma)
In short: as §1

[3] = test system: NCI-H2342 (Lung Adenocarcinoma)
In short: as §1

[4] = test system: HEC-1 (Endometrial Carcinoma)
In short: as §1

LN-229 (Glioblastoma) = test system: LN-229 (Glioblastoma)
In short: as §1

[5] = test system: FADU (Head and Neck Carcinoma)
In short: as §1

[6] = test system: RCM-1 (Colorectal Carcinoma)
In short: as §1

[7] = test system: MFE-280 (Endometrial Carcinoma)
In short: as §1

[8] = test system: NCI-H23 (Lung Adenocarcinoma)
In short: as §1

[9] = test system: OAW-42 (Ovarian Carcinoma)
In short: as §1

[10] = test system: MKN45 (Gastric Carcinoma)
In short: as §1

IST-MES1 (Mesothelioma) = test system: IST-MES1 (Mesothelioma)
In short: as §1

[11] = test system: NCI-H446 (Small Cell Lung Carcinoma)
In short: as §1

[12] = test system: RERF-GC-1B (Gastric Carcinoma)
In short: as §1

[13] = test system: SHP-77 (Small Cell Lung Carcinoma)
In short: as §1

[14] = test system: HCT-15 (Colorectal Carcinoma)
In short: as §1

[15] = test system: SK-PN-DW (Other Solid Carcinomas)
In short: as §1

[16] = test system: OPM-2 (Plasma Cell Myeloma)
In short: as §1

[17] = test system: PC-3_[JPC-3] (Lung Adenocarcinoma)
In short: as §1

[18] = test system: OVMIU (Ovarian Carcinoma)
In short: as §1

SMILES	Bliss excess [1]	Bliss excess [2]	Bliss excess [3]	Bliss excess [4]	Bliss excess (LN-229 (Glioblastoma))	Bliss excess [5]	Bliss excess [6]	Bliss excess [7]	Bliss excess [8]	Bliss excess [9]	Bliss excess [10]	Bliss excess (IST-MES1 (Mesothelioma))	Bliss excess [11]	Bliss excess [12]	Bliss excess [13]	Bliss excess [14]	Bliss excess [15]	Bliss excess [16]	Bliss excess [17]	Bliss excess [18]
COc1nnc2ccc(N3CCC(c4ccc(OCCN5CCN(C)C(=O)[C@H]5C)cc4)CC3)nn12 [AZD5153] + CC1(C)CCC(CN2CCN(c3ccc(C(=O)NS(=O)(=O)c4ccc(NCC5CCOCC5)c([N+](=O)[O-])c4)c(Oc4cnc5[nH]ccc5c4)c3)CC2)=C(c2ccc(Cl)cc2)C1 [Venetoclax] (first compound max 1 µM, 7x7, partner max 1 µM)	-0.0422	-0.0372	-0.0384	-0.0443	-0.0496	-0.0492	-0.0191	-0.0138	-0.0473	-0.0201	-0.0389	-0.0237	0.0507	-0.0442	0.0049	-0.0242	-0.0998	0.0082	-0.111	-0.0254
NC1(C(=O)N[C@@H](CCO)c2ccc(Cl)cc2)CCN(c2ncnc3[nH]ccc23)CC1 [Capivasertib] + Cn1cnc2c(F)c(Nc3ccc(Br)cc3Cl)c(C(=O)NOCCO)cc21 [Selumetinib] (first compound max 10 µM, 7x7, partner max 10 µM)	0.0728	0.028	0.0891	0.0234	0.0437	-0.0297	0.019	0.0212	0.0101	0.0028	-0.0478	0.0018	0.0534	0.0077	-0.0045	0.0387	0.032	0.0515	0.0268	-0.0255
CC1(C)CCC(CN2CCN(c3ccc(C(=O)NS(=O)(=O)c4ccc(NCC5CCOCC5)c([N+](=O)[O-])c4)c(Oc4cnc5[nH]ccc5c4)c3)CC2)=C(c2ccc(Cl)cc2)C1 [Venetoclax] + Cc1cc2ncnn2cc1Nc1ncc2c(n1)n(C1CCOCC1)c(=O)n2C [AZD7648] (first compound max 1 µM, 7x7, partner max 10 µM)	-0.043	-0.0293	-0.0473	-0.0286	-0.0174	-0.0241	-0.0533	-0.0773	-0.0172	-0.0381	-0.0576	-0.0284	-0.0181	-0.0276	-0.0088	-0.0043	-0.054	-0.0263	-0.0445	-0.109
CN(C)CCCOc1ccc(-c2ccc3ncc4c(c3c2)n(C2CCOCC2)c(=O)n4C)cn1 [AZD0156] + O=C(c1cc(Cc2n[nH]c(=O)c3ccccc23)ccc1F)N1CCN(C(=O)C2CC2)CC1 [Olaparib] (first compound max 3 µM, partner max 3 µM)	-0.0236	-0.0076	-0.0504	-0.0173	-0.0258	0.0039	0.003	0.0591	0.0049	0.0145	-0.0028	-0.0141	0.0788	-0.0079	0.0544	0.007	0.0158	0.0067	-0.0349	0.06
C=CCn1c(=O)c2cnc(Nc3ccc(N4CCN(C)CC4)cc3)nc2n1-c1cccc(C(C)(C)O)n1 [AZD1775] + C1CN(CCC1(C(=O)N[C@@H](CCO)C2=CC=C(C=C2)Cl)N)C3=NC=NC4=C3C=CN4 [Capivasertib] (first compound max 3 µM, partner max 3 µM)	-0.0573	0.0133	-0.0136	-0.0424	-0.062	0.0615	0.0141	-0.0055	-0.0135	-0.0399	-0.0736	-0.0056	0.0213	-0.0632	-0.0114	0.0159	0.0265	0.0001	-0.0534	-0.0032
NC1(C(=O)N[C@@H](CCO)c2ccc(Cl)cc2)CCN(c2ncnc3[nH]ccc23)CC1 [Capivasertib] + CC(C)n1c(=O)n(C)c2cnc3cc(F)c(-c4ccc(OCCCN5CCCCC5)nc4)cc3c21 [AZD1390] (first compound max 10 µM, 7x7, partner max 0.3 µM)	0.0162	-0.0403	-0.0212	-0.0453	-0.0755	-0.0562	-0.0274	-0.0763	-0.0484	-0.0171	-0.0646	-0.0553	-0.0866	-0.0323	-0.0178	-0.036	-0.0892	-0.0346	-0.0982	-0.0592
CC1(C)CCC(CN2CCN(c3ccc(C(=O)NS(=O)(=O)c4ccc(NCC5CCOCC5)c([N+](=O)[O-])c4)c(Oc4cnc5[nH]ccc5c4)c3)CC2)=C(c2ccc(Cl)cc2)C1 [Venetoclax] + C=CCn1c(=O)c2cnc(Nc3ccc(N4CCN(C)CC4)cc3)nc2n1-c1cccc(C(C)(C)O)n1 [AZD1775] (first compound max 1 µM, partner max 1 µM)	0.035	-0.0402	-0.0184	-0.0569	-0.0083	-0.0282	0.0294	0.0767	-0.0533	-0.0283	-0.0402	-0.0281	-0.029	-0.112	0.0141	-0.0265	0.0457	0.0966	-0.0736	-0.013
CN(CCO)CC[C@H](CSc1ccccc1)Nc1ccc(S(=O)(=O)NC(=O)c2ccc(N3CCC([C@@H](O)c4ccccc4-c4ccc(Cl)cc4)CC3)cc2)cc1S(=O)(=O)C(F)(F)F [AZD4320] + CN(C)CCCOc1ccc(-c2ccc3ncc4c(c3c2)n(C2CCOCC2)c(=O)n4C)cn1 [AZD0156] (first compound max 1 µM, 7x7, partner max 1 µM)	-0.0459	-0.028	-0.0214	-0.0414	-0.0218	-0.01	-0.0538	0.0113	-0.0118	-0.0088	-0.0612	-0.041	-0.0002	0.0211	0.0223	-0.0438	-0.0302	0.0221	-0.0583	-0.0427
Cc1c2c(nn1C)CSCc1cc(n(C)n1)CSc1cc(c3ccccc3c1)OCCCc1c(C(=O)O)n(C)c3c-2c(Cl)ccc13 [AZD5991] + CC1(C)CCC(CN2CCN(c3ccc(C(=O)NS(=O)(=O)c4ccc(NCC5CCOCC5)c([N+](=O)[O-])c4)c(Oc4cnc5[nH]ccc5c4)c3)CC2)=C(c2ccc(Cl)cc2)C1 [Venetoclax] (first compound max 1 µM, 7x7, partner max 1 µM)	-0.0397	-0.0255	-0.0599	-0.0543	-0.0271	-0.0231	0.0136	-0.0225	-0.0077	0.0028	-0.0206	-0.0239	0.117	-0.0126	0.0977	-0.0087	0.0206	0.0217	-0.0503	-0.0207
CC1(C)CCC(CN2CCN(c3ccc(C(=O)NS(=O)(=O)c4ccc(NCC5CCOCC5)c([N+](=O)[O-])c4)c(Oc4cnc5[nH]ccc5c4)c3)CC2)=C(c2ccc(Cl)cc2)C1 [Venetoclax] + C[C@@H]1COCCN1C2=NC(=NC(=C2)C3(CC3)[S@](=N)(=O)C)C4=C5C=CNC5=NC=C4 [AZD6738] (first compound max 1 µM, 7x7, partner max 10 µM)	-0.0556	-0.0004	-0.0209	-0.0267	-0.0601	0.0467	-0.0542	-0.0486	0.0157	-0.016	-0.0526	-0.0101	-0.0536	-0.0579	-0.007	-0.0084	-0.0045	-0.0462	-0.0438	-0.111
Cn1cnc2c(F)c(Nc3ccc(Br)cc3Cl)c(C(=O)NOCCO)cc21 [Selumetinib] + CC(C)n1c(=O)n(C)c2cnc3cc(F)c(-c4ccc(OCCCN5CCCCC5)nc4)cc3c21 [AZD1390] (first compound max 10 µM, 7x7, partner max 0.3 µM)	0.01	-0.0022	-0.0489	-0.0412	-0.0563	-0.004	-0.0495	-0.0427	-0.0103	-0.0392	-0.0388	-0.0382	-0.0469	0.0413	-0.0038	-0.0001	-0.0289	-0.0153	-0.0445	-0.0444
CC1(C)CCC(CN2CCN(c3ccc(C(=O)NS(=O)(=O)c4ccc(NCC5CCOCC5)c([N+](=O)[O-])c4)c(Oc4cnc5[nH]ccc5c4)c3)CC2)=C(c2ccc(Cl)cc2)C1 [Venetoclax] + CN(C)CCCOc1ccc(-c2ccc3ncc4c(c3c2)n(C2CCOCC2)c(=O)n4C)cn1 [AZD0156] (first compound max 1 µM, 7x7, partner max 1 µM)	-0.0876	-0.014	-0.0546	0.0064	-0.007	0.0088	-0.0086	0.0338	-0.0114	-0.0402	-0.095	-0.0382	0.0143	-0.0356	0.0254	-0.0192	-0.0437	0.0271	-0.103	-0.111
